Data from ChEMBL document CHEMBL1127581, “Evolution of a novel series of [(N,N-dimethylamino)propyl]- and piperazinylbenzanilides as the first selective 5-HT1D antagonists” (J Med Chem, 1994).
pKi: −log10 of the molar value.

Assays:
[1] = target: 5-hydroxytryptamine receptor 4 (Homo sapiens, UniProt Q13639); assay: Binding affinity against 5-hydroxytryptamine 4 receptor
[2] = target: 5-hydroxytryptamine receptor 1D (Cavia porcellus, UniProt Q60484); assay: In vitro binding affinity towards 5-hydroxytryptamine 1D receptor in guinea-pig striatum in presence of BMY-7378 and mesulergine; type: tissue-based
[3] = target: 5-hydroxytryptamine receptor 1D (Cavia porcellus) (UniProt Q60484); assay: Oral effective dose against hypothermia in the guinea pig caused by stimulation of central 5-hydroxytryptamine 1D receptors by the agonist GR-46611;range is 0.2-0.4; type: functional
[4] = target: T1, Adrenergic receptor alpha-1 (Homo sapiens, UniProt P35348+P25100+P35368); assay: Binding affinity against alpha-1 adrenoceptor; type: protein assay
T1 sequence (P35348 whole entry): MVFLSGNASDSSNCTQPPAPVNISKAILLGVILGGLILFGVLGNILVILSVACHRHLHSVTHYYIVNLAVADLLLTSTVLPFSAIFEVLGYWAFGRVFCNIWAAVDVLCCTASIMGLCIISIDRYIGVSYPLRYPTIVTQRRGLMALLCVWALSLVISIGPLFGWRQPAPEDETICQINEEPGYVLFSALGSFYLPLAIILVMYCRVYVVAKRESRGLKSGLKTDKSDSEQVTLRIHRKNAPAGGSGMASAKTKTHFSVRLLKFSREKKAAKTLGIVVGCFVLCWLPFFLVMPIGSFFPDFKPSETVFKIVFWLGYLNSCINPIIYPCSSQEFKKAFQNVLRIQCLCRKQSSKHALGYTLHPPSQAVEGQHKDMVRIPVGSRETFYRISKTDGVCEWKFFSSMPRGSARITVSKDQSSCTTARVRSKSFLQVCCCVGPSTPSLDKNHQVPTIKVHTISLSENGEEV
T1 sequence (P25100 whole entry): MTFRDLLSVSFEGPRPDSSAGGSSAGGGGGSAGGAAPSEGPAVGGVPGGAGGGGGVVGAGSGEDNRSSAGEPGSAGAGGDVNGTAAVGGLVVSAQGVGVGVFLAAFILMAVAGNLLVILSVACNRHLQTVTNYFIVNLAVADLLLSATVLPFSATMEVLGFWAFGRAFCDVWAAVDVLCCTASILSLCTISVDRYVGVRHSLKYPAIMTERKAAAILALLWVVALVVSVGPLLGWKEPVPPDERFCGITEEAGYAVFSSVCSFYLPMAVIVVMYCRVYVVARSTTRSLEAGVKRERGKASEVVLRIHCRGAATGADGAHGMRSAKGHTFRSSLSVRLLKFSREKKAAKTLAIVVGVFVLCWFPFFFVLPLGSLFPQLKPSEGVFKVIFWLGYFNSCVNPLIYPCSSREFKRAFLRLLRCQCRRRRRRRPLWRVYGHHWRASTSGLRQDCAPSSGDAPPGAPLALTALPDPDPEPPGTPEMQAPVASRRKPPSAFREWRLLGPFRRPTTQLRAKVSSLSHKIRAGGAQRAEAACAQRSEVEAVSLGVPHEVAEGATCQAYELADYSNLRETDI
T1 sequence (P35368 whole entry): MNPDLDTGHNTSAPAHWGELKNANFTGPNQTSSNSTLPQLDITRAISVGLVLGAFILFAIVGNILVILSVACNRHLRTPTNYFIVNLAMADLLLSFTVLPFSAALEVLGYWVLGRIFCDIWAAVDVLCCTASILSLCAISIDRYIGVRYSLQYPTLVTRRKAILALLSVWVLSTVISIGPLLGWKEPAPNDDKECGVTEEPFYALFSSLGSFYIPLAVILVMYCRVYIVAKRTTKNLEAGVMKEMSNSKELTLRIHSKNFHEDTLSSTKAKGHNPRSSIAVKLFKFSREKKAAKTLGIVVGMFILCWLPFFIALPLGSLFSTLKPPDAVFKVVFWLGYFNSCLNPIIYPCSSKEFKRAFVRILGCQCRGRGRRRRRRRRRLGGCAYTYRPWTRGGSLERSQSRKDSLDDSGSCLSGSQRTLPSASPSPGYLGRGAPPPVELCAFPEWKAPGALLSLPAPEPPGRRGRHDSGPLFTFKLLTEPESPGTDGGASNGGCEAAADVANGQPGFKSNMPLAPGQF

D(2) dopamine receptor = D(2) dopamine receptor (Homo sapiens, UniProt P14416); assay: Binding affinity against dopamine D2 receptor
[5] = target: T2, Muscarinic acetylcholine receptor M2 (Homo sapiens, UniProt P08172); assay: Binding affinity against muscarinic M2 receptor
T2 sequence (P08172 whole entry): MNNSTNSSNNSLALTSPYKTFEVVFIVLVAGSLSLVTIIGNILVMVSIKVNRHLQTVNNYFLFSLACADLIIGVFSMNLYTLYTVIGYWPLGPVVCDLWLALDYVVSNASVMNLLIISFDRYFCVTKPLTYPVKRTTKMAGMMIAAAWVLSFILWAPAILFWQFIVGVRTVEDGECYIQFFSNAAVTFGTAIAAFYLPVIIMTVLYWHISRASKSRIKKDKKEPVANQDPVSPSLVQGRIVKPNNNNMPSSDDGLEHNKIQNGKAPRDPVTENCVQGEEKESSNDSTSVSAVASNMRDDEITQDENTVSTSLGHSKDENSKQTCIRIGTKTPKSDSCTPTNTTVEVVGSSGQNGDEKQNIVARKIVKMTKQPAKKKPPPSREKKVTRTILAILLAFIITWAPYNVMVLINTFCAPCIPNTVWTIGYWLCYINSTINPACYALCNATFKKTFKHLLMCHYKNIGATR

[6] = target: T3, Muscarinic acetylcholine receptor M1 (Homo sapiens, UniProt P11229); assay: Binding affinity against muscarinic M1 receptor
T3 sequence (P11229 whole entry): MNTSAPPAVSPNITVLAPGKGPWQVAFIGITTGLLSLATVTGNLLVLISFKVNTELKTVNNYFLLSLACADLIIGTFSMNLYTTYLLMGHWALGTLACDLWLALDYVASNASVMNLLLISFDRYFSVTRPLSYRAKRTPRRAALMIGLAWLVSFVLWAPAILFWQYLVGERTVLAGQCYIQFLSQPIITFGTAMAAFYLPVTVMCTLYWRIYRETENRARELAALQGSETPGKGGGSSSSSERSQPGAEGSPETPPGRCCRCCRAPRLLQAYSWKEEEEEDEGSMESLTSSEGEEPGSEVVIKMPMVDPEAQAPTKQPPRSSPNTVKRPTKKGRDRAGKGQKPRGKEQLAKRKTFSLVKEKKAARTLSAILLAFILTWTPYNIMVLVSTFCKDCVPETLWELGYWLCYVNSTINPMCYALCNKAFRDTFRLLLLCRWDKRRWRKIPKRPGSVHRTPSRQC

D(3) dopamine receptor = D(3) dopamine receptor (Homo sapiens, UniProt P35462); assay: Binding affinity against dopamine D3 receptor
Chain of D(3) dopamine receptor (P35462 whole entry): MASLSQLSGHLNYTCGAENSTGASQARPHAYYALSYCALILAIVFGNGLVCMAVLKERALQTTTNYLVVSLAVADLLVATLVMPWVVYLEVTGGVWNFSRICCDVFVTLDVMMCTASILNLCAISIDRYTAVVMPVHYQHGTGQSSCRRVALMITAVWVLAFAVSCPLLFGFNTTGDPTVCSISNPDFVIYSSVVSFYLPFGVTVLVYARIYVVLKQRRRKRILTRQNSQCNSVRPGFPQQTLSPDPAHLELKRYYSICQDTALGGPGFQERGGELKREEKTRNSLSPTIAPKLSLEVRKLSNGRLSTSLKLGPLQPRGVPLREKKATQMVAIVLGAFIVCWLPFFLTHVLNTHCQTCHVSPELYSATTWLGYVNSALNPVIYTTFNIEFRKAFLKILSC

Chain of D(2) dopamine receptor (P14416 whole entry): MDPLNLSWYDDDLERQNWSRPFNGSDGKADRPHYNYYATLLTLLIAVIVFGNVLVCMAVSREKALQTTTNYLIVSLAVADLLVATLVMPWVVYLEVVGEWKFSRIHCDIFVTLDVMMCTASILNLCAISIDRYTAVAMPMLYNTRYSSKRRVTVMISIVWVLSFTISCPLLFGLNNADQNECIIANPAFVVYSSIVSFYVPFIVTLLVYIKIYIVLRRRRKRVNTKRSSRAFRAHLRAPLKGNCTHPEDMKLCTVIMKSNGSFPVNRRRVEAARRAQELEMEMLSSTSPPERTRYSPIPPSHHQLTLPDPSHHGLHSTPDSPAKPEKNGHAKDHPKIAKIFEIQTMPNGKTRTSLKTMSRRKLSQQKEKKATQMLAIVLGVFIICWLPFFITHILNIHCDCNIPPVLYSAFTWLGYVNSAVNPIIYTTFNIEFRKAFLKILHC
Chain of 5-hydroxytryptamine receptor 1D (Cavia porcellus) (Q60484 whole entry): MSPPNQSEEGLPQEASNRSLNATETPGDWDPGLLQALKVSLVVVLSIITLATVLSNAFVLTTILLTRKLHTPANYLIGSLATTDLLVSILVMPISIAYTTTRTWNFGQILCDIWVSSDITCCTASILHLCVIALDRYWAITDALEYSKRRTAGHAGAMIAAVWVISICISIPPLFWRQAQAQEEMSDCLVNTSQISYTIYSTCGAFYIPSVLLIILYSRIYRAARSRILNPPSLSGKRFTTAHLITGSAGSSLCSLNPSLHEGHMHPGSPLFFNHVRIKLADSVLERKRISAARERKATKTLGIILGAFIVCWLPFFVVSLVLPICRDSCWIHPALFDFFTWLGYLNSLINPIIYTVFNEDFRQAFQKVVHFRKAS
Chain of 5-hydroxytryptamine receptor 1D (Q60484 whole entry): as above
Chain of 5-hydroxytryptamine receptor 4 (Q13639 whole entry): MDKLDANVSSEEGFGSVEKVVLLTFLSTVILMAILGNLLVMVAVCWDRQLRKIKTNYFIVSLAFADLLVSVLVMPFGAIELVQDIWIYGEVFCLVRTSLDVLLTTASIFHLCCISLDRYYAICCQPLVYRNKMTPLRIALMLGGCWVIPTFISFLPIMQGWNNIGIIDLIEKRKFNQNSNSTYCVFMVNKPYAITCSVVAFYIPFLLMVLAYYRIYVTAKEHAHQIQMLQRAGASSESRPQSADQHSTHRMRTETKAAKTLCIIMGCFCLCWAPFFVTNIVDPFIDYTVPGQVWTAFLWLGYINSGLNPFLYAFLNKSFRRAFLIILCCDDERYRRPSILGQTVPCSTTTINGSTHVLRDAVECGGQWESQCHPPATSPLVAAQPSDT

COc1ccc(NC(=O)c2ccc(-c3ccc(-c4noc(C)n4)cc3C)cc2)cc1N1CCN(C)CC1 [GR-127935]
pKi [1]: < 5.00
pKi [2]: 8.50
ED50 [3]: 0.3 mg/kg
Log Ki [4]: > -6
pKi (D(2) dopamine receptor): < 5.00
pKi [5]: < 6.00
pKi [6]: < 6.00
pKi (D(3) dopamine receptor): < 5.00
